Data set [1] relates to Maillard reaction of bovine albumin with methylglyoxal. The data set can be described thus: Antiglycation activity: fructosamine assay after incubation of albumin with methylglyoxal. The format is biochemical. Particulars: compound 10 mM, bovine albumin 6.6 mg/ml, 1 mM methylglyoxal, pH 7.4, 37° C., 6 days; relative to incubation without compound. As to the method: Study of the Antiglycation Activity
The compounds (I) are also capable of inhibiting the so-called Maillard reactions by “capturing effect” on the α-dicarbonyl-containing derivatives such as glyoxal—this is the antiglycation effect. This Maillard reaction inhibiting effect of the compounds according to the invention was studied in vitro by assaying ketamines (“fructosamines”) produced during the incubation of albumin with methylglyoxal in the presence or otherwise of a compound of formula (I) according to the invention.
A solution of bovine albumin at 6.6 mg/ml in 0.2 M phosphate buffer, pH 7.4, is incubated with 1 mM methylglyoxal in the presence or otherwise of a compound according to the invention at a concentration of 10 mM. The incubation is carried out under sterile conditions at 37° C. for 6 days. At the end of the incubation period, the quantity of ketamines is measure with a commercially available fructosamine assay kit (“FRA” kit, product reference: 0757055, Roche S. A. products) according to the manufacturer's instructions.
By way of example, results obtained under these experimental conditions are assembled in Table IV: level of fructosamine after incubation of the albumin with the methylglyoxal in the presence of compounds (I) according to the invention in relation to the level of fructosamine when albumin is incubated with methylglyoxal in the absence of the compounds (I) according to the invention.

The test system of data set [2] is non-insulin-dependent diabetes induced in rats by Streptozotocin. The data set can be described thus: Antidiabetic activity in the Nostz rat (non-insulin-dependent diabetes induced by neonatal streptozotocin), glycaemia after oral treatment. The format is in vivo. Particulars: diabetic rats, blood 2 h after last administration; for change in vivo at 20 mg/kg: 20 mg/kg/D oral; for change in vivo at 200 mg/kg: 200 mg/kg/D oral. The method, then:
Study of the Antidiabetic Activity in the Nostz Rat
The antidiabetic activity of the compounds of formula (I) administered orally was determined on an experimental model of non-insulin-dependent diabetes induced in rats by Streptozotocin.
The non-insulin-dependent diabetes model is obtained in rats by neonatal injection (on the day of birth) of streptozotocin.
The diabetic rats used were 8 weeks old. The animals were kept, from the day of their birth to the day of the experiment, in an animal house at a controlled temperature of 21 to 22° C. and subjected to a fixed cycle of light (from 7 am to 7 pm) and darkness (from 7 pm to 7 am). Their diet consisted of a maintenance diet, water and food were provided “ab libitum”, with the exception of the 2 hours of fasting preceding the tests when the food is withdrawn (postabsorptive state).
The rats were treated by the oral route for one (D1) or four (D4) days with the product to be tested. Two hours after the last administration of the product and 30 minutes after anaesthetizing the animals with sodium pentobarbital (Nembutal a), 300 μl of blood sample are collected from the end of the tail.
By way of example, results obtained are assembled in Table III.

Setting [3] is: 24 h, 1 day of treatment, read-out: percentage variation of glycaemia at D1 relative to D0.
Setting [4] is: 96 h, 4 days of treatment, read-out: percentage variation of glycaemia at D4 relative to D0.

Structures are written as SMILES. Counter-ions that a name gives are not always drawn. Like-named read-outs stand apart in the source and are kept apart here.

Consider 20 compounds from patent US7767676B2, “Dihydro-1,3,5-triazine amine derivatives and their therapeutic uses” (Merck Sante, priority 2000, dated 2010).

For orientation: melting point means the temperature of the solid-liquid transition.

On to `CN(C)C1=NC(c2ccccc2)N=C(N)N1` (stereo not shown) [Compound 10], for which the “Reduction in the level of fructosamines (%)” value (from here on “Reduction in the level … (%)”) in data set [1] came to 80%.

As to `CN(C)C1=NC(C(F)(F)F)N=C(N)N1` (stereo not shown) [Compound 36], the “Reduction in the level … (%)” value in data set [1] was 66%.

For `CN(C)C1=NC(C2CCCCC2)N=C(N)N1` (stereo not shown) [Compound 34], the change in vivo at 20 mg/kg in data set [2] (setting [3]) was -5%; in data set [2] (setting [4]) it was -15%. For the same compound, the change in vivo at 200 mg/kg in data set [2] (setting [3]) was -6%; in data set [2] (setting [4]) it was -21%. The “Reduction in the level … (%)” value in data set [1] was 64%.

In the case of `CN(C)C1=NC(c2ccco2)N=C(N)N1` (stereo not shown) [Compound 40], in data set [2] (setting [3]), the change in vivo at 20 mg/kg is -8% and the change in vivo at 200 mg/kg was -18%. In addition, in data set [2] (setting [4]), the change in vivo at 20 mg/kg is -12% and the change in vivo at 200 mg/kg is -18%. Further, the “Reduction in the level … (%)” value in data set [1] came out at 66%.

For the compound `CN(C)C1=NC(Cc2ccccc2)N=C(N)N1` (stereo not shown) [Compound 37], the change in vivo at 20 mg/kg was -7% in data set [2] (setting [3]) and -8% in data set [2] (setting [4]). Also, the figures for the change in vivo at 200 mg/kg in data set [2] (setting [3]) and in data set [2] (setting [4]) were -10% and -15%, respectively. Further, the “Reduction in the level … (%)” value in data set [1] was found to be 65%.

`CN(C)C1=NC(c2ccc(O)cc2)N=C(N)N1` (stereo not shown) [Compound 13] displayed a melting point greater than 260 °C. The “Reduction in the level … (%)” value in data set [1] was 95%.

As for `CN(C)C1=NC(C2CC=CCC2)N=C(N)N1` (stereo not shown) [Compound 45], in data set [1], the “Reduction in the level … (%)” value is reported as 67%.

Consider `COc1ccc(C2N=C(N)NC(N(C)C)=N2)cc1` (stereo not shown) [Compound 11], for which the “Reduction in the level … (%)” value in data set [1] was found to be 89%.

`CCC1N=C(N)NC(N(C)C)=N1` (stereo not shown) [Compound 1, 2-amino-3,6-dihydro-4-dimethylamino-6-ethyl-1,3,5-triazine hydrochloride]: in data set [2] (setting [3]), the change in vivo at 20 mg/kg was -7% and the change in vivo at 200 mg/kg is -13%. In addition, in data set [2] (setting [4]), the change in vivo at 20 mg/kg is -2% and the change in vivo at 200 mg/kg is -15%. For the same compound, in data set [1], the “Reduction in the level … (%)” value is reported as 62%.

As to `CC(C)CC1N=C(N)NC(N(C)C)=N1` (stereo not shown) [Compound 43], in data set [2] (setting [3]), the change in vivo at 20 mg/kg is -4% and the change in vivo at 200 mg/kg was -12%. In addition, in data set [2] (setting [4]), the change in vivo at 20 mg/kg is -16% and the change in vivo at 200 mg/kg was -17%. Besides, the “Reduction in the level … (%)” value in data set [1] turned out to be 68%.

Turning to `CN(C)C1=NC(c2ccc(O)cc2)N=C(N)N1` (stereo not shown) [Compound 12], the “Reduction in the level … (%)” value in data set [1] is reported as 90%.

With `CC1N=C(N)NC(N(C)C)=N1` (stereo not shown) [Compound 18], in data set [2] (setting [3]), the change in vivo at 20 mg/kg was -6% and the change in vivo at 200 mg/kg is -29%. Also, in data set [2] (setting [4]), the change in vivo at 20 mg/kg is -4% and the change in vivo at 200 mg/kg is -28%. Moreover, the “Reduction in the level … (%)” value in data set [1] was found to be 69%.

Turning to `CN(C)C1=NCN=C(N)N1` [Compound 33], the change in vivo at 20 mg/kg in data set [2] (setting [3]) is -7%; in data set [2] (setting [4]), -6%. Also, the change in vivo at 200 mg/kg was -9% in data set [2] (setting [3]) and -14% in data set [2] (setting [4]). In data set [1], the “Reduction in the level … (%)” value amounted to 79%.

For `CN(C)C1=NC(Cc2ccccc2)N=C(N)N1` (stereo not shown) (as salt: toluenesulphonate) [Compound 37], the melting point was 159 to 161 °C.

In the case of `CCNC1=NC2(CCCCC2)N=C(N(C)C)N1` (as salt: HCl) [Compound 23], the melting point lay within 248 to 250 °C.

Regarding `C=CCNC1=NC(C)(C)N=C(N(C)C)N1` (as salt: HCl) [Compound 8], the melting point lay within 124 to 126 °C.

`CN(C)C1=NC(C(F)(F)F)N=C(N)N1` (stereo not shown) (as salt: toluenesulphonate) [Compound 36]: the melting point is 251 to 253 °C.

`CN(C)C1=NC(C)(CCCO)N=C(N)N1` (stereo not shown) [Compound 6]: the melting point was 138 to 140 °C.

`CN(C)C1=NC(c2ccccc2)N=C(N)N1` (stereo not shown) (as salt: HCl) [Compound 10] returned a melting point of 239 to 241 °C.

As to `CN(C)C1=NC2(CCC(OCc3ccccc3)CC2)N=C(N)N1` (stereo not shown) (as salt: HCl) [Compound 27], the melting point is greater than 260 °C.
